We go through eleven compounds from patent US7485644B2, “N-{'4-substituted piperazine-1-sulfonylmethylalkyl}-n-hydroxyfomamide compounds as metalloproteinase inhibitors” (AstraZeneca AB, priority 2003, dated 2009).

SMILES strings stand for the structures.

One data set has as its target T1, Collagenase 3 (MMP13) (Homo sapiens, UniProt P45452).
T1 construct: made in house
As to the kind of experiment: Collagenase 3 (MMP13) enzyme inhibition, fluorogenic peptide substrate. The class given is biochemical. The conditions noted are these: recombinant human proMMP13 activated with APMA; 4-5 hours at 35° C., pH 7.5; fluorescence λex 328 nm, λem 393 nm; read-out: IC50 (nM), collagenase 3 (MMP13) inhibitory activity. The source says:
The activity and selectivity of the compounds according to the invention may be determined using an appropriate enzyme inhibition test as described in WO 00/12478, WO 00/75108 and WO 01/62742. Collagenase 3 (MMP13) inhibitory activity may be assessed, for example, using the procedure set out below:—
Recombinant human proMMP13 may be expressed and purified as described by Knauper et al. [V. Knauper et al., (1996) The Biochemical Journal 271:1544-1550 (1996)]. The purified enzyme can be used to monitor inhibitors of activity as follows: purified proMMP13 is activated using 1 mM amino phenyl mercuric […] (APMA), 20 hours at 21° C.; the activated MMP13 (11.25 ng per assay) is incubated for 4-5 hours at 35° C. in assay buffer (0.1M Tris-HCl, pH 7.5 containing 0.1M NaCl, 20 mM CaCl2, 0.02 mM ZnCl and 0.05% (w/v) Brij 35 using the synthetic substrate 7-methoxycoumarin-4-yl)acetyl.Pro.Leu.Gly.Leu.N-3-(2,4-dinitrophenyl)-L-2,3-diaminopropionyl.Ala.Arg.NH2 in the presence or absence of inhibitors. Activity is determined by measuring the fluorescence at λex 328 nm and λem 393 nm. By measuring the activity at a range of concentrations, a binding curve can be generated from which the IC50 can be determined, this figure being the inhibitor concentration at which the enzyme activity is reduced by 50%.

As usually defined, the IC50 is the concentration that inhibits the measured activity by half. `O=CN(O)C(CCCc1ncccn1)CS(=O)(=O)N1CCN(c2ccc(OC(F)(F)C(F)F)cc2)CC1` (centres unmarked) [Example 7a]: the IC50 on Collagenase 3 (MMP13) was found to be 0.12 nM.
As for `O=CN(O)C(CS(=O)(=O)N1CCN(c2ccc(OCC(F)(F)F)cc2)CC1)C1CCOCC1` (centres unmarked) [Example 8g], the concentration for half-maximal inhibition (IC50) on Collagenase 3 (MMP13) came out at 4 nM.
Consider `CCC(CS(=O)(=O)N1CCN(c2ccc(OC(F)(F)C(F)F)cc2)CC1)N(O)C=O` (racemic) [Example 7f], for which the concentration for half-maximal inhibition (IC50) at Collagenase 3 (MMP13) was found to be 2.8 nM.
The melting point is the temperature of the solid-liquid transition. In the case of `O=CN(O)[C@H](CS(=O)(=O)N1CCN(c2ccc(OC(F)(F)C(F)F)cc2)CC1)C1CCOCC1` [Example 4, Hydroxy[(1S)-2-({4-[4-(1,1,2,2-tetrafluoroethoxy)phenyl]piperazin-1-yl}sulfonyl)-1-(tetrahydro-2H-pyran-4-yl)ethyl]formamide], the melting point is 175 to 176 °C.
For the compound `O=CN(O)C(CS(=O)(=O)N1CCN(c2ccc(OC(F)(F)C(F)F)cc2)CC1)c1ccccc1` (centres unmarked) [Example 5, Hydroxy[1-phenyl-2-({4-[4-(1,1,2,2-tetrafluoroethoxy)phenyl]piperazin-1-yl}sulfonyl)ethyl]formamide], the IC50 on Collagenase 3 (MMP13) turned out to be 3.6 nM.
With `O=CN(O)C(CS(=O)(=O)N1CCN(c2ncc(OCC(F)(F)F)cn2)CC1)C1CCOCC1` (centres unmarked) [Example 2f], the concentration for half-maximal inhibition (IC50) at Collagenase 3 (MMP13) was 13 nM.
For the compound `O=CN(O)C(CCc1ncccn1)CS(=O)(=O)N1CCN(c2ccc(OCC(F)(F)F)cc2)CC1` (centres unmarked) [Example 8b], the IC50 on Collagenase 3 (MMP13) amounted to 1.5 nM.
Take `O=CN(O)C(CCc1ncc(F)cn1)CS(=O)(=O)N1CCN(c2ccc(OC(F)(F)C(F)F)cc2)CC1` (centres unmarked) [Example 7c]: the concentration for half-maximal inhibition (IC50) at Collagenase 3 (MMP13) turned out to be 0.19 nM.
For the compound `O=CN(O)C(CCc1ncc(F)cn1)CS(=O)(=O)N1CCN(c2ccc(OCC(F)(F)F)cn2)CC1` (centres unmarked) [Example 2b], at Collagenase 3 (MMP13), the IC50 was 0.24 nM.
The compound `O=CN(O)[C@@H](CCCc1ncccn1)CS(=O)(=O)N1CCN(c2ncc(OCC(F)(F)F)cn2)CC1` [Example 1, Hydroxy{(1S)-4-pyrimidin-2-yl-1-[({4-[5-(2,2,2-trifluoroethoxy)pyrimidin-2-yl]piperazin-1-yl}sulfonyl)methyl]butyl}formamide] had a melting point of 129 to 133 °C.
The same measure, in the same setting: then `O=CN(O)[C@@H](CCc1ncccn1)CS(=O)(=O)N1CCN(c2ccc(OCC(F)(F)F)cn2)CC1` [Example 3, Hydroxy{(1S)-3-pyrimidin-2-yl-1-[({4-[5-(2,2,2-trifluoroethoxy)pyridin-2-yl]piperazin-1-yl}sulfonyl)methyl]propyl}formamide], with 149 to 151 °C.
